Measured values taken from the Deep4Chem optical property database.
Several values for one entry are separate records, joined by “and”; a condition that tells them apart may be missing. Identical values can stand only once.

Experiment: photoluminescence quantum yield (fraction); solvent given as SMILES

O=c1c2ccccc2sc2ccc(-n3c4ccccc4c4ccccc43)cc12
photoluminescence quantum yield (in O=P(c1ccccc1)(c1ccccc1)c1ccccc1Oc1ccccc1P(=O)(c1ccccc1)c1ccccc1): 0.512

COc1ccc(/C=C/C=C/C2=NC3C(=O)NC(N)=NC3N2[C@H]2C[C@H](O)[C@@H](CO)O2)cc1 (stereo partly drawn)
photoluminescence quantum yield (in C1COCCO1): 0.71 | photoluminescence quantum yield (in CC#N): 0.68 | photoluminescence quantum yield (in CO): 0.56

O=C(c1ccc(-n2c3ccc(-c4ccccc4)cc3c3cc(-c4ccccc4)ccc32)cc1)c1ccc(-n2c3ccc(-c4ccccc4)cc3c3cc(-c4ccccc4)ccc32)cc1
photoluminescence quantum yield (in Cc1ccccc1): 0.153

COc1c2ccccc2c(OC)c2c1c1cccc(OC)c1n2C
photoluminescence quantum yield (in C1CCCCC1): 0.39 | photoluminescence quantum yield (in CC#N): 0.4 | photoluminescence quantum yield (in CO): 0.39 | photoluminescence quantum yield (in ClCCl): 0.44

COc1ccc(N(c2ccc(OC)cc2)c2ccc3ccc4c(B(c5c(C)cc(C)cc5C)c5c(C)cc(C)cc5C)ccc5ccc2c3c54)cc1
photoluminescence quantum yield (in C1CCOC1): 0.19 | photoluminescence quantum yield (in CC(C)=O): 0.026 | photoluminescence quantum yield (in CCCCCC): 1 | photoluminescence quantum yield (in Cc1ccccc1): 0.85 | photoluminescence quantum yield (in ClC(Cl)Cl): 0.67 | photoluminescence quantum yield (in ClCCl): 0.21

CCc1cccc(CC)c1-c1c2ccccc2c(C#Cc2ccccc2)c2cc3ccccc3cc12
photoluminescence quantum yield (in ClCCl): 0.57

N#Cc1nc(N(Cc2ccc(Cl)cc2)Cc2ccc(Cl)cc2)c(C#N)nc1N(Cc1ccc(Cl)cc1)Cc1ccc(Cl)cc1
photoluminescence quantum yield (in ClC(Cl)Cl): 0.71

CSc1sc(C(=O)c2ccccc2)c2nn[nH]c(=O)c12
photoluminescence quantum yield (in C1CCOC1): 0.016 | photoluminescence quantum yield (in CC#N): 0.013 | photoluminescence quantum yield (in CCO): 0.0088 | photoluminescence quantum yield (in CN(C)C=O): 0.0057 | photoluminescence quantum yield (in CO): 0.0069 | photoluminescence quantum yield (in CS(C)=O): 0.0056

ClC(Cl)=C1c2ccccc2C(C2(Cl)c3ccccc3C(=C(Cl)Cl)c3ccccc32)c2ccccc21 (stereo not drawn)
photoluminescence quantum yield (in C1CCCCC1): 0.3 | photoluminescence quantum yield (in CCCCCO): 0.25 | photoluminescence quantum yield (in CCCCO): 0.21 | photoluminescence quantum yield (in CCCO): 0.19 | photoluminescence quantum yield (in CCO): 0.17 | photoluminescence quantum yield (in CO): 0.15

N#Cc1nc(N(Cc2ccc(F)cc2)Cc2ccc(F)cc2)c(C#N)nc1N(Cc1ccc(F)cc1)Cc1ccc(F)cc1
photoluminescence quantum yield (in ClC(Cl)Cl): 0.76

O=C1NC(c2ccccc2)=C/C1=C\c1ccccc1
photoluminescence quantum yield (in C1COCCO1): 0.012

CCOC(=O)c1sc2nc3c(c(C#N)c2c1N)CCCC3
photoluminescence quantum yield (in c1ccccc1): 0.046

CCOC(=O)c1c2c3c(ccc([N+](=O)[O-])c3c3cc4c(cc13)[Si](C)(C)O[Si]4(C)C)N(C)C2=O
photoluminescence quantum yield (in CC#N): 0.3

CCCCn1c(-c2ccc(-c3nnc(-c4ccc(-c5nc(-c6ccccc6)c(-c6ccccc6)n5CCCC)cc4)o3)cc2)nc(-c2ccccc2)c1-c1ccccc1
photoluminescence quantum yield (in ClCCl): 0.69

CC[N+]1=C(/C=C/C=C/C=C/C=C2/N(CCCCCC(=O)O)c3ccc(S(=O)(=O)[O-])cc3C2(C)C)C(C)(C)c2cc(S(=O)(=O)[O-])ccc21
photoluminescence quantum yield (in CO): 0.52 | photoluminescence quantum yield (in O): 0.28

Cc1ccc(N(c2ccc(C)cc2)c2ccc(-c3ccc(C=C(C#N)C#N)o3)cc2)cc1
photoluminescence quantum yield (in ClC(Cl)Cl): 0.1

COc1ccc(C2=Cc3c4ccccc4c4ccccc4[n+]3[B-](F)(F)O2)cc1
photoluminescence quantum yield (in ClC(Cl)Cl): 0.678

Cc1c2c(c(C)c3ccccc13)C1=CC3Nc4ccccc4NC3C=C12 (stereo not drawn)
photoluminescence quantum yield (in ClC(Cl)Cl): 0.02

c1ccc(-c2nc(-c3ccccc3)nc(-c3ccc(-n4c5ccc(-n6c7ccccc7c7ccccc76)cc5c5cc(-n6c7ccccc7c7ccccc76)ccc54)cc3)n2)cc1
photoluminescence quantum yield (in Cc1ccccc1): 0.57

CCOc1cccc2c1O[B-](F)(F)[n+]1c3c(c4c(c1-2)-c1ccccc1CC4)-c1ccccc1CC3
photoluminescence quantum yield (in ClCCl): 0.16

NS(=O)(=O)c1ccc(N2N=C(c3ccc(O)cc3)CC2c2ccc(Cl)cc2)cc1 (stereo not drawn)
photoluminescence quantum yield (in C1CCOC1): 0.68 | photoluminescence quantum yield (in C1COCCO1): 0.72 | photoluminescence quantum yield (in CC#N): 0.65 | photoluminescence quantum yield (in CC(C)O): 0.53 | photoluminescence quantum yield (in CCO): 0.44 | photoluminescence quantum yield (in CCOC(C)=O): 0.72 | photoluminescence quantum yield (in CN(C)C=O): 0.71 | photoluminescence quantum yield (in CO): 0.36 | photoluminescence quantum yield (in CS(C)=O): 0.75 | photoluminescence quantum yield (in O): 0.56

COC(=O)COc1ccc(/C=C/C2=[N+]3C(=C(c4ccc(N(C)C)cc4)c4c(C)cc(C)n4[B-]3(F)F)C(C)=C2)cc1
photoluminescence quantum yield (in CO): 0.67

CC1(C)c2ccccc2N(c2ccc3c(ccc4nc5ccc6cc(N7c8ccccc8C(C)(C)c8ccccc87)ccc6c5nc43)c2)c2ccccc21
photoluminescence quantum yield (in C1CCCCC1): 0.16 | photoluminescence quantum yield (in C1CCOC1): 0.07 | photoluminescence quantum yield (in Cc1ccccc1): 0.11 | photoluminescence quantum yield (in ClCCl): 0.05

Cc1cc(C)c(C2=C3C=c4c(c5ccccc5c5ccccc45)=[N+]3[B-](F)(F)n3c2cc2c4ccccc4c4ccccc4c23)c(C)c1
photoluminescence quantum yield (in C1CCCCC1): 0.64 | photoluminescence quantum yield (in C1CCOC1): 0.55 | photoluminescence quantum yield (in CC#N): 0.55 | photoluminescence quantum yield (in Cc1ccccc1): 0.51 | photoluminescence quantum yield (in ClCCl): 0.51 and 0.55

c1ccc(-c2ccc(-c3ccc4c(c3)CCCO4)cc2)cc1
photoluminescence quantum yield (in C1CCCCC1): 0.62

F[B-]1(F)OC(c2ccc(Br)cc2)=Cc2c3ccccc3c3ccccc3[n+]21
photoluminescence quantum yield (in ClC(Cl)Cl): 0.152

Cc1c2ccccc2c(C2=C3C=CC=[N+]3[B-](F)(F)n3cccc32)c2ccccc12
photoluminescence quantum yield (in CC#N): 0.001 | photoluminescence quantum yield (in CCCCCC): 0.041 | photoluminescence quantum yield (in CCO): 0.002 | photoluminescence quantum yield (in CN(C)C=O): 0.002 | photoluminescence quantum yield (in Cc1ccccc1): 0.007 | photoluminescence quantum yield (in ClCCl): 0.005

CN(C)c1cc(-c2ccccc2)cc2ccccc12
photoluminescence quantum yield (in ClCCl): 0.52

CCN(CC)c1ccc2cc(/C(Cl)=C/C=C/C(=C(C#N)C#N)c3ccc(N(c4ccccc4)c4ccccc4)cc3)c(=O)oc2c1
photoluminescence quantum yield (in CC(C)=O): 0.015 | photoluminescence quantum yield (in CCOC(C)=O): 0.028 | photoluminescence quantum yield (in CN(C)C=O): 0.002 | photoluminescence quantum yield (in CS(C)=O): 0.003 | photoluminescence quantum yield (in Cc1ccccc1): 0.098 | photoluminescence quantum yield (in ClCCl): 0.018

COc1ccc(N(c2ccc(OC)cc2)c2ccc(-c3ccc(-c4ccc(-c5cccs5)c5nsnc45)s3)cc2)cc1
photoluminescence quantum yield (in ClC(Cl)Cl): 0.28

C=C[Si]1(C)c2ccccc2-c2cc3c(cc21)-c1ccccc1[Si]3(C)C=C (stereo not drawn)
photoluminescence quantum yield (in ClCCl): 0.5

CC(=O)c1c(N[C@@H](CS)C(=O)O)c2ccc(N(C)C)cc2oc1=O
photoluminescence quantum yield (in ClCCl): 0.0025

CCCCCCCCc1ccc(-n2c3c4ccccc4nc(-c4ccc(C#N)cc4)c3c3c2c2c(-c4ccc(C#N)cc4)nc4ccccc4c2n3-c2ccc(CCCCCCCC)cc2)cc1
photoluminescence quantum yield (in ClC(Cl)Cl): 0.14

Nc1cc2nc3cc(Cl)c(Cl)cc3nc2cc1N
photoluminescence quantum yield (in CCO): 0.1

FC(F)(F)c1cc2n(n1)[B-](c1ccccc1)(c1ccccc1)[n+]1ccc3ccccc3c1-2
photoluminescence quantum yield (in C1CCCCC1): 0.999 | photoluminescence quantum yield (in Cc1ccccc1): 0.712 | photoluminescence quantum yield (in ClCCl): 0.778

COC(=O)c1nc(-c2ccccc2)oc1C
photoluminescence quantum yield (in C1CCCCC1): 0.36 | photoluminescence quantum yield (in CC#N): 0.38 | photoluminescence quantum yield (in CCO): 0.47 | photoluminescence quantum yield (in CCOC(C)=O): 0.44 | photoluminescence quantum yield (in O): 0.34

Oc1ccc2ccccc2c1-c1nc2c(c3c1-c1ccccc1CC3)-c1ccccc1CC2
photoluminescence quantum yield (in ClCCl): 0.07

CCN(CC)c1ccc(/C=N/c2cc3nc4ccccc4nc3cc2/N=C/c2ccc(N(CC)CC)cc2O)c(O)c1
photoluminescence quantum yield (in CC#N): 0.21

CC1=[N+]2C(=C(c3cccs3)c3ccc(C)n3[B-]2(F)F)C=C1c1cc2n(c1)[B-](F)(F)[N+]1=CC=CC1=C2c1c(C)cc(C)cc1C
photoluminescence quantum yield (in C1CCCCC1): 0.62 | photoluminescence quantum yield (in CCOC(C)=O): 0.12

N#Cc1nc(-c2ccc(N3c4ccccc4Oc4ccccc43)cc2)c(-c2ccc(N3c4ccccc4Oc4ccccc43)cc2)nc1C#N
photoluminescence quantum yield (in c1cc(-c2cccc(-n3c4ccccc4c4ccccc43)c2)cc(-n2c3ccccc3c3ccccc32)c1): 0.15

O=c1c2ccccc2sc2ccccc12
photoluminescence quantum yield (in C1CCOC1): 0.012 | photoluminescence quantum yield (in C1COCCO1): 0.015 | photoluminescence quantum yield (in CC#N): 0.066 | photoluminescence quantum yield (in CC(C)=O): 0.024 | photoluminescence quantum yield (in CC(C)O): 0.14 | photoluminescence quantum yield (in CCCCOC(C)=O): 0.0078 | photoluminescence quantum yield (in CO): 0.25 | photoluminescence quantum yield (in OCCO): 0.41 | photoluminescence quantum yield (in c1ccccc1): 0.012

O=c1cc(C(F)(F)F)c2cc3c4c(c2o1)CCCN4CCC3
photoluminescence quantum yield (in CCC#N): 0.76 | photoluminescence quantum yield (in CCCCCCCl): 0.95 | photoluminescence quantum yield (in CCCCl): 0.77 | photoluminescence quantum yield (in CCO): 0.62 | photoluminescence quantum yield (in OCC(F)(F)F): 0.47

C(S/C=C/c1ccc(-c2ccc(/C=C/SC=C(c3ccccc3)c3ccccc3)cc2)cc1)=C(c1ccccc1)c1ccccc1
photoluminescence quantum yield (in ClCCl): 0.143

CCN(CC)c1ccc(-c2nc(Oc3ccc(-c4nc5ccc(Cl)cc5o4)cc3)nc(Oc3ccc(-c4nc5ccc(Cl)cc5o4)cc3)n2)cc1
photoluminescence quantum yield (in CN(C)C=O): 0.0179

CC1=c2cc3c(C)c4n(c3cc2=[N+]2C1=Cc1c3ccccc3c(C)n1[B-]2(F)F)[B-](F)(F)[N+]1=C(C)c2ccccc2C1=C4
photoluminescence quantum yield (in ClC(Cl)Cl): 0.36

COc1ccc2cc(C3=[N+]4C(=Nc5c(-c6ccc7ccccc7c6)c(Br)c(-c6ccc7cc(OC)ccc7c6)n5[B-]4(F)F)C(c4ccc5ccccc5c4)=C3Br)ccc2c1
photoluminescence quantum yield (in ClCCl): 0

F[B-]1(F)n2c(ccc2-c2cccs2)C(c2ccc(Br)cc2)=C2C=CC(c3cccs3)=[N+]21
photoluminescence quantum yield (in ClC(Cl)Cl): 0.82

c1cc2ccc1-c1ccc(cc1)-c1ccc([se]1)-c1ccc(cc1)-c1ccc(cc1)-c1ccc([se]1)-c1ccc(cc1)-c1ccc(cc1)-c1ccc([se]1)-c1ccc(cc1)-c1ccc(cc1)-c1ccc-2[se]1
photoluminescence quantum yield (in C1CCOC1): 0.13

c1ccc2c(c1)OP1(=NP3(=NP(Oc4ccc5ccc6cccc7ccc4c5c67)(Oc4ccc5ccc6cccc7ccc4c5c67)=N1)Oc1ccccc1-c1ccccc1O3)Oc1ccccc1-2
photoluminescence quantum yield (in ClCCl): 0.82

CCCCCCc1cc2/c(=C(\C#N)C(=O)OC)s/c(=c3/s/c(=C(/C#N)C(=O)OC)c4cc(CCCCCC)sc34)c2s1
photoluminescence quantum yield (in Cc1ccccc1): 0.086

CC(C)(C)c1cccc2c1oc1nc3oc4ccc(-n5c6ccccc6c6ccccc65)cc4c3cc12
photoluminescence quantum yield (in ClC(Cl)Cl): 0.072

CC(C)(C)c1ccc(-c2nnc(-c3c(-n4c5ccccc5c5ccccc54)c(-n4c5ccccc5c5ccccc54)c(-c4nnc(-c5ccc(C(C)(C)C)cc5)o4)c(-n4c5ccccc5c5ccccc54)c3-n3c4ccccc4c4ccccc43)o2)cc1
photoluminescence quantum yield (in c1cc(-n2c3ccccc3c3ccccc32)nc(-n2c3ccccc3c3ccccc32)c1): 0.89
